Literature values, collected in patent US20070219192A1, “Certain chemical entities, compositions, and methods” (priority 2005, published 2007).

Test system: A549 cells
Details: data provided by National Cancer Institute, Developmental Therapeutic Program

Going from `O=c1[nH]cc(F)c(=O)[nH]1` [5-fluorouracil] to `COc1cccc2c1C(=O)c1c(O)c3c(c(O)c1C2=O)C[C@@](O)(C(=O)CO)C[C@@H]3O[C@H]1C[C@H](N)[C@H](O)[C@H](C)O1` [doxorubicin], the GI50 falls from 1 µM to 0.063 µM (16-fold).

Going from `CC(=O)O[C@H]1C(=O)[C@@]2(C)[C@H]([C@H](OC(=O)c3ccccc3)[C@]3(O)C[C@H](OC(=O)[C@H](O)[C@@H](NC(=O)c4ccccc4)c4ccccc4)C(C)=C1C3(C)C)[C@]1(OC(C)=O)CO[C@@H]1C[C@@H]2O` [paclitaxel] to `NC(=O)NO` [hydroxyurea], the GI50 rises from 0.004 µM to 500 µM.
